What is called DC50 is the concentration giving 50% degradation.

The subject of the assay is c-myc in 22RV-1 cells. Briefly: Human c-myc ELISA assay. The assay is classed as cell-based. Particulars: Homo sapiens; for Emax: 22Rv1, 18 h, read-out: Degradation of BRD4: Maximum inhibition (%) c-Myc ELISA in 22RV1 cells; for DC50: 22Rv1, read-out: Degradation of BRD4: DC50 (uM) c-Myc ELISA in 22RV1 cells. The gist of the method:
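c-myc levels measured by ELISA in RIPA lysates of 22RV-1 cells, calibrated with a 333-0 pg/ml standard curve. Lysates came from cells exposed for 18 h to an 8-point, 1:3 dose series starting at 300 nM or 1 μM final in 0.1% DMSO. Suppression potency given as DC50.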
(In general: In an ELISA, binding on a coated surface is turned into a signal by an enzyme label.)

With `Cc1ncsc1-c1ccc([C@H](C)NC(=O)[C@@H]2C[C@@H](O)CN2C(=O)[C@@H](NC(=O)COc2nccc(N3CCN(C(=O)C[C@@H]4N=C(c5ccc(Cl)cc5)c5c(sc(C)c5C)-n5c(C)nnc54)CC3)n2)C(C)(C)C)cc1` [Example 331], the Emax was determined as 81.5% and the DC50 fell in the range of 0.1 to 1 µM.
For the compound `Cc1ncsc1-c1ccc([C@H](C)NC(=O)[C@@H]2C[C@@H](O)CN2C(=O)[C@@H](NC(=O)[C@H](C)OCCCOCCNC(=O)C[C@@H]2N=C(c3ccc(Cl)cc3)c3c(sc(C)c3C)-n3c(C)nnc32)C(C)(C)C)cc1` [Example 153], the Emax was found to be 92% and the DC50 was less than 0.01 µM.
With `Cc1ncsc1-c1ccc(CNC(=O)[C@@H]2C[C@@H](O)CN2C(=O)[C@@H](NC(=O)COCCOCCOCCOCCOCCOCCNC(=O)C[C@@H]2N=C(c3ccc(Cl)cc3)c3c(sc(C)c3C)-n3c(C)nnc32)C(C)(C)C)cc1` [Example 4, (2S,4R)-1-[(2S)-2-(20-{2-[(9S)-7-(4-chlorophenyl)-4,5,13-trimethyl-3-thia-1,8,11,12-tetraazatricyclo[8.3.0.0^2,^6]trideca-2(6),4,7,10,12-pentaen-9-yl]acetamido}-3,6,9,12,15,18-hexaoxaicosanamido)-3,3-dimethylbutanoyl]-4-hydroxy-N-{[4-(4-methyl-1,3-thiazol-5-yl)phenyl]methyl}-pyrrolidine-2-carboxamide], the Emax was 62.2% and the DC50 lay in the range of 0.1 to 1 µM.
In the same order, the values of `Cc1ncsc1-c1ccc(CNC(=O)[C@@H]2C[C@@H](O)CN2C(=O)[C@@H](NC(=O)COCCOCCOCCCOCCOCCNC(=O)C[C@@H]2N=C(c3ccc(Cl)cc3)c3c(sc(C)c3C)-n3c(C)nnc32)C(C)(C)C)cc1` [Example 8] are 95.9% and 0.1 to 1 µM.
`Cc1ncoc1-c1ccc(CNC(=O)[C@@H]2C[C@@H](O)CN2C(=O)[C@@H](NC(=O)COc2ccc(O[C@H]3C[C@@H](NC(=O)C[C@@H]4N=C(c5ccc(Cl)cc5)c5c(sc(C)c5C)-n5c(C)nnc54)C3)nc2)C(C)(C)C)cc1` [Example 258]: the Emax amounted to 87.5% and the DC50 lay within 0.01 to 0.1 µM.
For the compound `Cc1ncsc1-c1ccc(CNC(=O)[C@@H]2C[C@@H](O)CN2C(=O)[C@@H](NC(=O)COCCN2CCC(c3ccc([C@@H](C)NC(=O)C[C@@H]4N=C(c5ccc(Cl)cc5)c5c(sc(C)c5C)-n5c(C)nnc54)cc3)CC2)C(C)(C)C)cc1` [Example 57], the Emax came out at 94% and the DC50 was in the range of 0.1 to 1 µM.
Take `Cc1ncsc1-c1ccc(CNC(=O)[C@@H]2C[C@@H](O)CN2C(=O)[C@H](C(C)C)n2cc(-c3ccnc(O[C@H](C)CNC(=O)C[C@@H]4N=C(c5ccc(Cl)cc5)c5c(sc(C)c5C)-n5c(C)nnc54)c3)cn2)cc1` [Example 168]: the Emax is 92% and the DC50 was in the range of 0.01 to 0.1 µM.
Take `Cc1ncsc1-c1ccc(CNC(=O)[C@@H]2C[C@@H](O)CN2C(=O)[C@@H](NC(=O)c2cn3ccc(OCCCNC(=O)C[C@@H]4N=C(c5ccc(Cl)cc5)c5c(sc(C)c5C)-n5c(C)nnc54)cc3n2)C(C)(C)C)cc1` [Example 99]: the Emax is 67% and the DC50 lay within 0.1 to 1 µM.
As to `Cc1ncsc1-c1ccc([C@H](C)NC(=O)[C@@H]2C[C@@H](O)CN2C(=O)[C@@H](NC(=O)COCCOCCCOc2ccc([C@@H](C)NC(=O)C[C@@H]3N=C(c4ccc(Cl)cc4)c4c(sc(C)c4C)-n4c(C)nnc43)cc2)C(C)(C)C)cc1` [Example 30], the Emax came to 96% and the DC50 lay within 0.01 to 0.1 µM.
In the same order, the values of `Cc1ncsc1-c1ccc(CNC(=O)[C@@H]2C[C@@H](O)CN2C(=O)[C@@H](NC(=O)COCCOCCCOc2ccc([C@@H](C)NC(=O)C[C@@H]3N=C(c4ccc(Cl)cc4)c4c(sc(C)c4C)-n4c(C)nnc43)cc2)C(C)(C)C)cc1` [Example 29] are 96.8% and 0.01 to 0.1 µM.
In the case of `Cc1ncsc1-c1ccc([C@H](C)NC(=O)[C@H]2C[C@H](O)CN2C(=O)[C@@H](NC(=O)CN2CCC(O[C@H]3C[C@H](NC(=O)C[C@@H]4N=C(c5ccc(Cl)cc5)c5c(sc(C)c5C)-n5c(C)nnc54)C3)CC2)C(C)(C)C)cc1` [Example 345], the Emax is less than 5% and the DC50 is greater than 1 µM.
Consider `Cc1ncsc1-c1ccc([C@H](C)NC(=O)[C@@H]2C[C@@H](O)CN2C(=O)[C@@H](NC(=O)C[C@@H]2N=C(c3ccc(Cl)cc3)c3c(sc(C)c3C)-n3c(C)nnc32)C(C)(C)C)cc1` [Example 349], for which the Emax was 22% and the DC50 was greater than 1 µM.
In the same order, the values of `Cc1ncsc1-c1ccc([C@H](C)NC(=O)[C@@H]2C[C@@H](O)CN2C(=O)[C@@H](NC(=O)COCCCOCCOc2cccc(NC(=O)C[C@@H]3N=C(c4ccc(Cl)cc4)c4c(sc(C)c4C)-n4c(C)nnc43)c2)C(C)(C)C)cc1` [Example 129] are 96% and less than 0.01 µM.
In the same order, the values of `Cc1ncsc1-c1ccc([C@H](C)NC(=O)[C@@H]2C[C@@H](O)CN2C(=O)[C@@H](C(C)C)n2cc(-c3cc(F)cc(O[C@H]4C[C@@H](NC(=O)C[C@@H]5N=C(c6ccc(Cl)cc6)c6c(sc(C)c6C)-n6c(C)nnc65)C4)c3)cn2)cc1` [Example 246] are 83% and 0.1 to 1 µM.
Turning to `Cc1ncoc1-c1ccc([C@H](C)NC(=O)[C@@H]2C[C@@H](O)CN2C(=O)[C@H](C(C)C)n2cc(-c3ccnc(O[C@H]4C[C@@H](NC(=O)C[C@@H]5N=C(c6ccc(Cl)cc6)c6c(sc(C)c6C)-n6c(C)nnc65)C4)c3)cn2)cc1` [Example 277], the Emax amounted to 94% and the DC50 fell in the range of 0.01 to 0.1 µM.
In the case of `Cc1ncsc1-c1ccc([C@H](C)NC(=O)[C@@H]2C[C@@H](O)CN2C(=O)[C@@H](NC(=O)COc2cccc(OCCNC(=O)C[C@@H]3N=C(c4ccc(Cl)cc4)c4c(sc(C)c4C)-n4c(C)nnc43)c2)C(C)(C)C)cc1` [Example 127, (2S,4R)-1-[(2S)-2-{2-[3-(2-{2-[(9S)-7-(4-chlorophenyl)-4,5,13-trimethyl-3-thia-1,8,11,12-tetraazatricyclo[8.3.0.0^2,^6]trideca-2(6),4,7,10,12-pentaen-9-yl]acetamido}ethoxy)phenoxy]acetamido}-3,3-dimethylbutanoyl]-4-hydroxy-N-[(1S)-1-[4-(4-methyl-1,3-thiazol-5-yl)phenyl]ethyl]pyrrolidine-2-carboxamide], the Emax amounted to 99% and the 50% degradation concentration (DC50) is less than 0.01 µM.
Regarding `Cc1ncsc1-c1ccc(CNC(=O)[C@@H]2C[C@@H](O)CN2C(=O)[C@H](C(C)C)n2cc(-c3cccc(O[C@H]4C[C@H](NC(=O)C[C@@H]5N=C(c6ccc(Cl)cc6)c6c(sc(C)c6C)-n6c(C)nnc65)C4)c3)cn2)cc1` [Example 217], the Emax amounted to 91.9% and the DC50 was in the range of 0.01 to 0.1 µM.
For `Cc1sc2c(c1C)C(c1ccc(Cl)cc1)=N[C@@H](CC(=O)N[C@H]1C[C@@H](Oc3cccc(-c4cnn([C@H](C(=O)N5C[C@H](O)C[C@H]5C(=O)N[C@@H](C)c5ccc(-n6ccnc6C)cc5)C(C)C)c4)c3)C1)c1nnc(C)n1-2` [Example 299], in that order: 72.5% and 0.1 to 1 µM.
As to `Cc1ncsc1-c1ccc([C@H](C)NC(=O)[C@@H]2C[C@@H](O)CN2C(=O)[C@H](C(C)C)n2cc(-c3ccnc(O[C@H]4C[C@H](NC(=O)C[C@@H]5N=C(c6ccc(Cl)cc6)c6c(sc(C)c6C)-n6c(C)nnc65)C4)c3)cn2)cc1` [Example 228, (2S,4R)-4-hydroxy-N-[(1S)-1-[4-(4-methyl-1,3-thiazol-5-yl)phenyl]ethyl]-1-[(2S)-3-methyl-2-(4-{2-[(1r,3r)-3-{2-[(9S)-7-(4-chlorophenyl)-4,5,13-trimethyl-3-thia-1,8,11,12-tetraazatricyclo[8.3.0.0^2,^6]trideca-2(6),4,7,10,12-pentaen-9-yl]acetamido}cyclobutoxy]pyridin-4-yl}-1H-pyrazol-1-yl)butanoyl]pyrrolidine-2-carboxamide], the Emax came out at 100% and the DC50 is less than 0.01 µM.
In the case of `Cc1ncsc1-c1ccc([C@H](C)NC(=O)[C@@H]2C[C@@H](O)CN2C(=O)[C@@H](NC(=O)COCCOCCCOc2ccc([C@H](C)NC(=O)CC3N=C(c4ccc(Cl)cc4)c4c(sc(C)c4C)-n4c(C)nnc43)cc2)C(C)(C)C)cc1` (stereo partly drawn) [Example 108], the Emax is 95.4% and the DC50 lay within 0.1 to 1 µM.
In the case of `Cc1ncsc1-c1ccc(CNC(=O)[C@@H]2C[C@@H](O)CN2C(=O)[C@@H](C(C)C)n2cc(-c3ccnc(O[C@H](C)CNC(=O)C[C@@H]4N=C(c5ccc(Cl)cc5)c5c(sc(C)c5C)-n5c(C)nnc54)c3)cn2)cc1` [Example 167], the Emax stood at 27.6% and the DC50 was greater than 1 µM.
Regarding `Cc1ncoc1-c1ccc(CNC(=O)[C@@H]2C[C@@H](O)CN2C(=O)[C@@H](NC(=O)COCCCOCCNC(=O)C[C@@H]2N=C(c3ccc(Cl)cc3)c3c(sc(C)c3C)-n3c(C)nnc32)C(C)(C)C)cc1` [Example 74], the Emax was 97% and the DC50 lay in the range of 0.01 to 0.1 µM.
In the same order, the values of `Cc1ncsc1-c1ccc(CNC(=O)[C@@H]2C[C@@H](O)CN2C(=O)[C@H](C(C)C)n2cc(-c3ccnc(O[C@H]4C[C@@H](NC(=O)C[C@@H]5N=C(c6ccc(Cl)cc6)c6c(sc(C)c6C)-n6c(C)nnc65)C4)c3)cn2)cc1` [Example 178, (2S,4R)-4-hydroxy-N-{[4-(4-methyl-1,3-thiazol-5-yl)phenyl]methyl}-1-[(2S)-3-methyl-2-(4-{2-[(1,3-cis)-3-{2-[(9S)-7-(4-chlorophenyl)-4,5,13-trimethyl-3-thia-1,8,11,12-tetraazatricyclo[8.3.0.0^2,6]trideca-2(6),4,7,10,12-pentaen-9-yl]acetamido}cyclobutoxy]pyridin-4-yl}-1H-pyrazol-1-yl)butanoyl]pyrrolidine-2-carboxamide] are 99% and 0.01 to 0.1 µM.
Take `Cc1ncsc1-c1ccc([C@H](C)NC(=O)[C@@H]2C[C@@H](O)CN2C(=O)[C@H](C(C)C)n2cc(-c3cccc(O[C@H]4C[C@@H](NC(=O)C[C@@H]5N=C(c6ccc(Cl)cc6)c6c(sc(C)c6C)-n6c(C)nnc65)C4)c3)cn2)cc1` [Example 243]: the Emax was found to be 95.5% and the DC50 is less than 0.01 µM.

The record behind these values is patent US11554171B2, “Compounds and methods for the targeted degradation of bromodomain-containing proteins” (Arvinas Operations, Inc., priority 2015, dated 2023).
